Test results from ChEMBL document CHEMBL1201862, “PubChem BioAssay data set” (2004).
The source made the active and inactive calls.

Tests used:
CAAX prenyl protease 2 = CAAX prenyl protease 2 (Saccharomyces cerevisiae S288c, UniProt Q03530); type: biochemical
[1] = biological target: Polyadenylate-binding protein 1 (Homo sapiens, UniProt P11940); test: PABP inhibition in translation initiation, SAR follow-up (AID 435018); type: functional
[2] = biological target: Eukaryotic translation initiation factor 4H (Homo sapiens, UniProt Q15056); test: inhibitors of translation initiation factor eIF4H – SAR follow-up (AID 435011); type: functional
[3] = biological target: T1, Kappa-type opioid receptor (Homo sapiens, UniProt P41145); test: SAR analysis of Antagonists of the Kappa Opioid Receptor (KOR) using an Image-Based Assay - Set 3. [Related pubchem assays (depositor defined):AID1777, AID1785]; type: functional
T1 sequence (P41145 whole entry): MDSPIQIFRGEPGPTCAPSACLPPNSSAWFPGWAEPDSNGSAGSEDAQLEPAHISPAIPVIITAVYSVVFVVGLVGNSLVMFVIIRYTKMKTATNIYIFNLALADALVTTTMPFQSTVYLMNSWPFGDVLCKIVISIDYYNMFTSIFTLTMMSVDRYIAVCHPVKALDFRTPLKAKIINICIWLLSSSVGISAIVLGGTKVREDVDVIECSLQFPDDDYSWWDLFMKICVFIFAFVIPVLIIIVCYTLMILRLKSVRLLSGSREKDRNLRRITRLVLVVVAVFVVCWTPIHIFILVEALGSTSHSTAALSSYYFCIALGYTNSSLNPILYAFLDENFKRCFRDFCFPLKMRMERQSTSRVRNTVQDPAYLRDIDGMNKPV

[4] = biological target: T1, Kappa-type opioid receptor; test: SAR analysis of small molecule antagonists of the kappa opioid receptor via a luminescent beta-arrestin assay - Set 3. [Related pubchem assays (depositor defined):AID1777, AID1778, AID1785, AID1786, AID1966, AID2133, AID2136, AID2285, AID2495]; type: functional
Mu-type opioid receptor = Mu-type opioid receptor (Homo sapiens, UniProt P35372); test: SAR Analysis of Antagonists of the MOR Receptor using an Image-Based Assay - Set 3. [Related pubchem assays (depositor defined):AID1777, AID1785, AID1786, AID1966, AID2133, AID2136, AID2284, AID2285, AID2420]; type: functional
Mu-type opioid receptor, sequence (P35372 whole entry): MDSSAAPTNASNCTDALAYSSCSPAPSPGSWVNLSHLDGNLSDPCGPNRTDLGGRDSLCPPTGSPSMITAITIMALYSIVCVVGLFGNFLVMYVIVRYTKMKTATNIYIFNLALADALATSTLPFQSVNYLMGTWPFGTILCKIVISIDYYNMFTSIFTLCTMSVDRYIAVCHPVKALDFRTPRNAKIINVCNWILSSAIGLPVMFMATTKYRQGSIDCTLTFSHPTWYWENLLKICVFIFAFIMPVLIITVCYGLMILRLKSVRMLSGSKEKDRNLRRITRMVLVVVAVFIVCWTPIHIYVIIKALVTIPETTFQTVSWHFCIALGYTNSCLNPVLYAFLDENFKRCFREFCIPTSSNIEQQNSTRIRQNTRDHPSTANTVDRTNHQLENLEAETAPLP

[5] = biological target: Delta-type opioid receptor (Homo sapiens, UniProt P41143); test: SAR Analysis of Antagonists of the DOR Receptor using an Image-Based Assay - Set 3. [Related pubchem assays (depositor defined):AID1777, AID1785]; type: functional;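 further: U2OS cells expressing DOR1 and beta-arrestin GFP stimulated with 100 nM SNC80; imaging of GFP-tagged beta-arrestin moving into spots after receptor activation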
Delta-type opioid receptor, sequence (P41143 whole entry): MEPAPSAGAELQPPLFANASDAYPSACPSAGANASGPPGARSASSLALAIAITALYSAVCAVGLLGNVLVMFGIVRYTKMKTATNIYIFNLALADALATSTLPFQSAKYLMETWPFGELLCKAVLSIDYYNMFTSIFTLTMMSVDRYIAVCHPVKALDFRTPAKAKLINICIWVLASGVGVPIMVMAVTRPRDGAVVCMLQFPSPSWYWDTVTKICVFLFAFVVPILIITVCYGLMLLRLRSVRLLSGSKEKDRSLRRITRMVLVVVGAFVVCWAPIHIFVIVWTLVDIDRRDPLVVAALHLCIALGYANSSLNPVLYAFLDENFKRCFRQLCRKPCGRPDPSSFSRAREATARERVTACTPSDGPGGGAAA

Large T antigen = Large T antigen (Simian virus 40, UniProt P03070); type: functional, Betapolyomavirus macacae;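 further: Confirmatory-stage PubChem screen for compounds that inhibit SV40 T antigen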
Large T antigen, sequence (P03070 whole entry): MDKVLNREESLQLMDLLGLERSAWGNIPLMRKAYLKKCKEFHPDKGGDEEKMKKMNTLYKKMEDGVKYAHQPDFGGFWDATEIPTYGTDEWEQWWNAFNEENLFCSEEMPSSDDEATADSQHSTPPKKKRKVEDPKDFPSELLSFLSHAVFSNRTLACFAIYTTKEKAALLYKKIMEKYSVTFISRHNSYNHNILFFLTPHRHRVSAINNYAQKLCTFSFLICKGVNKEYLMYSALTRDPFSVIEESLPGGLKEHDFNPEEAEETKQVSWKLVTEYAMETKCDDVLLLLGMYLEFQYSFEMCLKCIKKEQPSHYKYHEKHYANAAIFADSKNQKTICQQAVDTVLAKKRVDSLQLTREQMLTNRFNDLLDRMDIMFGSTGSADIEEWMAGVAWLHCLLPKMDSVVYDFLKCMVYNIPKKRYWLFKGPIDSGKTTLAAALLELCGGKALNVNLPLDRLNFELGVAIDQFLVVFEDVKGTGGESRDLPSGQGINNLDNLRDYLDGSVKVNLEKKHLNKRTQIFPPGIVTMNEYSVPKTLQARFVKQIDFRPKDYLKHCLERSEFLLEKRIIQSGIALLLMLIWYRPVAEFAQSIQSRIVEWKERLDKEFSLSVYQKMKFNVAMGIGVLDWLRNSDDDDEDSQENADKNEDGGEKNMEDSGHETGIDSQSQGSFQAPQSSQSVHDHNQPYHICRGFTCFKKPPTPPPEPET

Bcl-2-like protein 10 = Bcl-2-like protein 10 (Homo sapiens, UniProt Q9HD36); test: Bcl-B/TR3 peptide binding disruption – biochemical, fluorescence polarization, FITC-TR3 peptide, selectivity assay for Bfl-1 inhibitor project, primary screen (AID 748);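 further: fluorescence polarization from a fluorescein-labelled TR3 peptide binding purified Bcl-B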
Bcl-2-like protein 10, sequence (Q9HD36 whole entry): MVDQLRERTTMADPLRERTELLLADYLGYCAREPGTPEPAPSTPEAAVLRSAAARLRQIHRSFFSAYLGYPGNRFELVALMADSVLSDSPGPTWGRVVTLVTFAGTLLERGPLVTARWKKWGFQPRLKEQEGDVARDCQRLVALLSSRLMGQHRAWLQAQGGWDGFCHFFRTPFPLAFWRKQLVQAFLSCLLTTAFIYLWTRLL

Caspase-3 = biological target: T2, Caspase-3 (Homo sapiens, UniProt P42574); type: functional;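 further: Dose-response selectivity test against caspase-3 for candidate inhibitors of sentrin-specific proteases (SENPs)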
T2 sequence (P42574 whole entry): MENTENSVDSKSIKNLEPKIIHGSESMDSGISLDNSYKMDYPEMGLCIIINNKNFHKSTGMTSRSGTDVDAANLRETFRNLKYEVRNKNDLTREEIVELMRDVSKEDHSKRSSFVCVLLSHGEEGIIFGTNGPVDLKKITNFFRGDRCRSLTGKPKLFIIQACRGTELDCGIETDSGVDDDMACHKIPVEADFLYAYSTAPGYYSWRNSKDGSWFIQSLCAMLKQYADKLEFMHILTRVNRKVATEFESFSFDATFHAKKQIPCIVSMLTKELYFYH

[6] = biological target: T3, Sentrin-specific protease 7 (Homo sapiens, UniProt Q9BQF6); type: functional;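 further: Luminescence-based dose-response confirmation of ultra-high-throughput screening hits, measuring inhibition of SENP7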
T3 sequence (Q9BQF6 whole entry): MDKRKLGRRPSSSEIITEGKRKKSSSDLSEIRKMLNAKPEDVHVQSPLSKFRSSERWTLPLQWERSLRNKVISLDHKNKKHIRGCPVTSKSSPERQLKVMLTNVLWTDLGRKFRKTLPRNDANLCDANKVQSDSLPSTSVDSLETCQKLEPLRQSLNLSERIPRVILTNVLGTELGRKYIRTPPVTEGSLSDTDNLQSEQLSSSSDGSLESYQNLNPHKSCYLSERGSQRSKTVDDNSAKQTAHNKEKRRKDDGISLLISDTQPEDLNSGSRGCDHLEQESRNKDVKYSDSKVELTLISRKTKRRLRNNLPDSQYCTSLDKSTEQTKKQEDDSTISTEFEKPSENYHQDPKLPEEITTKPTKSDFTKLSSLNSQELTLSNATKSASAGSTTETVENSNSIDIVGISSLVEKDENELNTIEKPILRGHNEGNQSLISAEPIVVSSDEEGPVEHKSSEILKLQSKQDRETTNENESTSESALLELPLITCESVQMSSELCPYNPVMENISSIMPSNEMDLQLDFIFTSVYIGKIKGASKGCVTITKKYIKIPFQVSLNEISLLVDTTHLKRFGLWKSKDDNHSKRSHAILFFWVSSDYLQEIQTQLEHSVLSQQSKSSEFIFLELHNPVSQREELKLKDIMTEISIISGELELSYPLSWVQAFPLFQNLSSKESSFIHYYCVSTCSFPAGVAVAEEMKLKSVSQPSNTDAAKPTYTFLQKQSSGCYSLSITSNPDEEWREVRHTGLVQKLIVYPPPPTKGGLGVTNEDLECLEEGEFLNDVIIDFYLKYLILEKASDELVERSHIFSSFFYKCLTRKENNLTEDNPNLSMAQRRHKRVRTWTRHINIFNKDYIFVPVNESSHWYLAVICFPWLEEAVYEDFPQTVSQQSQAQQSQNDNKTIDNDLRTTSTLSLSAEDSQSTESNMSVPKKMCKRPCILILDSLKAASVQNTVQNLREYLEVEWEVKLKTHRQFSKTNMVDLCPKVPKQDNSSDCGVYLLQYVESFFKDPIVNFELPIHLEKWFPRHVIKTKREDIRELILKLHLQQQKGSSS

[7] = biological target: T4, Sentrin-specific protease 6 (Homo sapiens, UniProt Q9GZR1); type: functional;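 further: Luminescence-based dose-response confirmatory assay of SENP6 inhibition, following up an ultra-high-throughput screen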
T4 sequence (Q9GZR1 whole entry): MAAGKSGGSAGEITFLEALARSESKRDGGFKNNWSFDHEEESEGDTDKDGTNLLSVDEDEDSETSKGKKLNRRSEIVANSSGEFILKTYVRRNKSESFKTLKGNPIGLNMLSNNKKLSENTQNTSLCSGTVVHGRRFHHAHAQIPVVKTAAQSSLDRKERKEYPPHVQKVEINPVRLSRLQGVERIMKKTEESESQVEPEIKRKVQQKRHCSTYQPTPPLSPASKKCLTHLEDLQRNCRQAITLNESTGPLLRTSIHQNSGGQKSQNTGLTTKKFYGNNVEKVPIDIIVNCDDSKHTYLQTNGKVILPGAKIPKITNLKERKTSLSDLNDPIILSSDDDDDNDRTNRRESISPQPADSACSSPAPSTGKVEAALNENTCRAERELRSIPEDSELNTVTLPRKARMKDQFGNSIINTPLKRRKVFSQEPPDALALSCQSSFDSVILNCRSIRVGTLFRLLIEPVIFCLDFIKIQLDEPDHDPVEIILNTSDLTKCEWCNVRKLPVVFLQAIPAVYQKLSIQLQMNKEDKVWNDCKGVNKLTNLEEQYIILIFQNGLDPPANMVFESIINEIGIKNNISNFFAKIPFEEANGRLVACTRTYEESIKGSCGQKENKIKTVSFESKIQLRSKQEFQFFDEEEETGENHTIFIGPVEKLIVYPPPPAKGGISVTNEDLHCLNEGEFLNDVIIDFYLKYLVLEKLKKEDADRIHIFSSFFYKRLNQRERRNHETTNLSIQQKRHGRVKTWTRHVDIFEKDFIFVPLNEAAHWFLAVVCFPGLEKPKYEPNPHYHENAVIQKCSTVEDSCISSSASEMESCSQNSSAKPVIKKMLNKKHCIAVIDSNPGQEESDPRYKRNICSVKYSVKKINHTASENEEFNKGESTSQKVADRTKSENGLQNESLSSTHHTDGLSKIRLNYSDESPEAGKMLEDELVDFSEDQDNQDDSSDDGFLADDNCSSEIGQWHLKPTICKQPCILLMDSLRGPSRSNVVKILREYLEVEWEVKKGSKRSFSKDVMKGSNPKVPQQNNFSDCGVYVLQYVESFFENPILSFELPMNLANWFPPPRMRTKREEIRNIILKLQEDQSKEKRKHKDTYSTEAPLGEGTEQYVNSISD

[8] = biological target: T5, Sentrin-specific protease 8 (Homo sapiens, UniProt Q96LD8); type: functional;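 further: luminescence read-out of SENP8 inhibition, dose-response confirmation following an ultra-high-throughput screen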
T5 sequence (Q96LD8 whole entry): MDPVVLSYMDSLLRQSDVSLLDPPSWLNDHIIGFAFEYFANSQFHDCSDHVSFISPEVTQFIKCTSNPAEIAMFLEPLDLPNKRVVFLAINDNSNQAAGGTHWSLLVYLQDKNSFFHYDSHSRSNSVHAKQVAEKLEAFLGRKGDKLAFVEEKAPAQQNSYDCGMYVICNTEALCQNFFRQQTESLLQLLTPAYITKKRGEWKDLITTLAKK

Polyadenylate-binding protein 1, sequence (P11940 whole entry): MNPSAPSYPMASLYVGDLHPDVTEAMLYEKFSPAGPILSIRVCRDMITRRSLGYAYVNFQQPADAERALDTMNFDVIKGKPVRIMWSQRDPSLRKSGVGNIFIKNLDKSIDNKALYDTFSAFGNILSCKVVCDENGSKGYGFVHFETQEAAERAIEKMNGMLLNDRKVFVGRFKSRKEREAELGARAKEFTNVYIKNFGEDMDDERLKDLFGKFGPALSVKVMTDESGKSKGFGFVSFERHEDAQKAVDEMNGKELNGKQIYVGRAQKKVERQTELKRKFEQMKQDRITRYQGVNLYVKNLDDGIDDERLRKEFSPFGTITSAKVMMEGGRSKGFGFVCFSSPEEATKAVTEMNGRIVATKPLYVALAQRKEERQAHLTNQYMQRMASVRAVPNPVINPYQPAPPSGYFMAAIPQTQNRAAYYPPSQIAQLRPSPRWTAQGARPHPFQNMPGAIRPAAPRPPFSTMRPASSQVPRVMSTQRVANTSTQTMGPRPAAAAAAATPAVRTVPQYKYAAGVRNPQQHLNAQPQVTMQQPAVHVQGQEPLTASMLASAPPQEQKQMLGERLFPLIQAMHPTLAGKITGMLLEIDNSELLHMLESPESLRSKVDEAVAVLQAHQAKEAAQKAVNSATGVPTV
CAAX prenyl protease 2, sequence (Q03530 whole entry): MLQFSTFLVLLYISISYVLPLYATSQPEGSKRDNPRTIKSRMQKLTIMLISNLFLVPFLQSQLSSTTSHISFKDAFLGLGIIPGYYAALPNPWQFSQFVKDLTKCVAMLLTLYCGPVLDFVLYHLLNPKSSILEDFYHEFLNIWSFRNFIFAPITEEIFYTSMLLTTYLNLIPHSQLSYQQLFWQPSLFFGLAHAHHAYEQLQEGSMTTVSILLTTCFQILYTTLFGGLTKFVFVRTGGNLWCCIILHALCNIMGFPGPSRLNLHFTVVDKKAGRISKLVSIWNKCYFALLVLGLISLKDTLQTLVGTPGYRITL

Compound | IC50 [1] | IC50 [2] | IC50 [3] | IC50 [4] | IC50 (Mu-type opioid receptor) | IC50 [5] | further results
O=S(=O)(c1ccccc1)c1nc(-c2ccco2)oc1N1CCCCC1 |  |  |  |  |  |  | AC50 (CAAX prenyl protease 2): 7.38 µM (active)
CS(=O)(=O)c1ccccc1C(=O)Nc1cccc2ncccc12 | 20.2 µM (active) | 16.1 µM (active) |  |  |  |  | 
O=C(Nc1ccccc1Cl)C1CCN(C(=O)c2cccs2)CC1 | > 100 µM (inactive) | > 100 µM (inactive) |  |  |  |  | 
O=C(NCCN1Cc2ccccc2C1)c1ccc(CNS(=O)(=O)c2ccc(Br)cc2)cc1 |  |  | > 32 µM (inactive) | > 20 µM (inactive) | > 32 µM (inactive) | > 32 µM (inactive) | 
CN1CCN(CCCNC(=O)Cn2c(=O)c3cccn3c3cccnc32)CC1 |  |  | > 32 µM (inactive) | > 20 µM (inactive) | > 32 µM (inactive) | > 32 µM (inactive) | 
Cc1csc(N/N=C/c2ccc(O)c([N+](=O)[O-])c2)n1 |  |  |  |  |  |  | IC50 (Large T antigen): 22.1 µM (active); IC50 (Bcl-2-like protein 10): > 100 µM (inactive); IC50 (Caspase-3): 3.15 µM (active); IC50 [6]: 4.19 µM (active); IC50 [7]: 9.25 µM (active); IC50 [8]: 8.45 µM (active)
